Assay results taken from ChEMBL document CHEMBL3885861, “Open TG-GATES”.

Organism: Rattus norvegicus
Test: Open TG-GATES - Regimen: Daily Repeat
Format: toxicity, organism-based, Sprague-Dawley
Design: regimen Daily Repeat, gender Male, age 6 weeks
Details: in vivo, po, 0 mg/kg, route gavage, dose level Control; for APTT / Bas / Eos / Fbg / Hb / Ht / Lym / MCH / MCHC / MCV / Mono / Neu / PT / Plat / RBC / Ret / WBC: tissue Blood; for KIDNEY_L / KIDNEY_R / KIDNEY_TOTAL: tissue Kidney; for LIVER: tissue Liver; for A/G / ALP / ALT / AST / BUN / CRE / Ca / Cl / DBIL / GLC / IP / K / LDH / Na / PL / RALB / TBIL / TC / TG / TP / gamma-GTP: tissue Plasma

CC(=O)Nc1ccc2c(c1)Cc1ccccc1-2 [2-ACETYLAMINOFLUORENE]
TERMINAL_BW (72 h, time 3 day): 245.3 g | APTT (72 h, time 3 day): 19.9 s | Bas (72 h, time 3 day): 1% | Eos (72 h, time 3 day): 1.2% | Fbg (72 h, time 3 day): 227.2 mg/dL | Hb (72 h, time 3 day): 14 g/dL | Ht (72 h, time 3 day): 40.4% | Lym (72 h, time 3 day): 82.2% | MCH (72 h, time 3 day): 21.5 pg | MCHC (72 h, time 3 day): 34.6% | MCV (72 h, time 3 day): 62.3 fL | Mono (72 h, time 3 day): 3% | Neu (72 h, time 3 day): 12.6% | PT (72 h, time 3 day): 11.3 s | Plat (72 h, time 3 day): 127 x10_4/uL | RBC (72 h, time 3 day): 648.4 x10_4/ul | Ret (72 h, time 3 day): 5.8% | WBC (72 h, time 3 day): 105.6 x10_2/uL | KIDNEY_L (72 h, time 3 day): 1.1 g | KIDNEY_R (72 h, time 3 day): 1.1 g | KIDNEY_TOTAL (72 h, time 3 day): 2.2 g | LIVER (72 h, time 3 day): 12.2 g | A/G (72 h, time 3 day): 1.6 | ALP (72 h, time 3 day): 913.6 IU/L | ALT (72 h, time 3 day): 38.2 IU/L | AST (72 h, time 3 day): 73.2 IU/L | BUN (72 h, time 3 day): 15.2 mg/dL | CRE (72 h, time 3 day): 0.5 mg/dL | Ca (72 h, time 3 day): 11 mg/dL | Cl (72 h, time 3 day): 101.8 meq/L | DBIL (72 h, time 3 day): 0.1 mg/dL | GLC (72 h, time 3 day): 208.4 mg/dL | IP (72 h, time 3 day): 8 mg/dL | K (72 h, time 3 day): 4.1 meq/L | LDH (72 h, time 3 day): 217.2 IU/L | Na (72 h, time 3 day): 141.2 meq/L | PL (72 h, time 3 day): 163 mg/dL | RALB (72 h, time 3 day): 3.6 g/dL | TBIL (72 h, time 3 day): 0.2 mg/dL | TC (72 h, time 3 day): 81.8 mg/dL | TG (72 h, time 3 day): 104.6 mg/dL | TP (72 h, time 3 day): 5.8 g/dL | gamma-GTP (72 h, time 3 day): 1.2 IU/L | TERMINAL_BW ([…], time 7 day): 278.1 g | TERMINAL_BW ([…], time 14 day): 334.5 g | TERMINAL_BW ([…], time 28 day): 417 g | APTT ([…], time 7 day): 19.7 s | Bas ([…], time 7 day): 0.4% | Eos ([…], time 7 day): 1% | Fbg ([…], time 7 day): 242 mg/dL | Hb ([…], time 7 day): 14.1 g/dL | Ht ([…], time 7 day): 39.9% | Lym ([…], time 7 day): 82.8% | MCH ([…], time 7 day): 21.9 pg | MCHC ([…], time 7 day): 35.2% | MCV ([…], time 7 day): 62.1 fL | Mono ([…], time 7 day): 2.4% | Neu ([…], time 7 day): 13% | PT ([…], time 7 day): 11.7 s | Plat ([…], time 7 day): 138.4 x10_4/uL | RBC ([…], time 7 day): 643 x10_4/ul | Ret ([…], time 7 day): 5.6% | WBC ([…], time 7 day): 114.7 x10_2/uL | APTT ([…], time 14 day): 21 s | Bas ([…], time 14 day): 0.8% | Eos ([…], time 14 day): 1% | Fbg ([…], time 14 day): 225.8 mg/dL | Hb ([…], time 14 day): 14.7 g/dL | Ht ([…], time 14 day): 42.3% | Lym ([…], time 14 day): 82.8% | MCH ([…], time 14 day): 20.5 pg | MCHC ([…], time 14 day): 34.7% | MCV ([…], time 14 day): 59 fL | Mono ([…], time 14 day): 2.2% | Neu ([…], time 14 day): 12.6% | PT ([…], time 14 day): 11.8 s | Plat ([…], time 14 day): 117.3 x10_4/uL | RBC ([…], time 14 day): 716.4 x10_4/ul | Ret ([…], time 14 day): 4% | WBC ([…], time 14 day): 96.8 x10_2/uL | APTT ([…], time 28 day): 20.8 s | Bas ([…], time 28 day): 0.8% | Eos ([…], time 28 day): 1% | Fbg ([…], time 28 day): 215.8 mg/dL | Hb ([…], time 28 day): 14.9 g/dL | Ht ([…], time 28 day): 43% | Lym ([…], time 28 day): 82.4% | MCH ([…], time 28 day): 19.8 pg | MCHC ([…], time 28 day): 34.7% | MCV ([…], time 28 day): 57.1 fL | Mono ([…], time 28 day): 2.2% | Neu ([…], time 28 day): 13.2% | PT ([…], time 28 day): 11.6 s | Plat ([…], time 28 day): 104.4 x10_4/uL | RBC ([…], time 28 day): 752.2 x10_4/ul | Ret ([…], time 28 day): 2.6% | WBC ([…], time 28 day): 122.5 x10_2/uL | KIDNEY_L ([…], time 7 day): 1.2 g | KIDNEY_R ([…], time 7 day): 1.2 g | KIDNEY_TOTAL ([…], time 7 day): 2.4 g | KIDNEY_L ([…], time 14 day): 1.3 g | KIDNEY_R ([…], time 14 day): 1.3 g | KIDNEY_TOTAL ([…], time 14 day): 2.6 g | KIDNEY_L ([…], time 28 day): 1.5 g | KIDNEY_R ([…], time 28 day): 1.5 g | KIDNEY_TOTAL ([…], time 28 day): 3 g | LIVER ([…], time 7 day): 12.4 g | LIVER ([…], time 14 day): 14.9 g | LIVER ([…], time 28 day): 16.7 g | A/G ([…], time 7 day): 1.4 | ALP ([…], time 7 day): 914.8 IU/L | ALT ([…], time 7 day): 35.8 IU/L | AST ([…], time 7 day): 65 IU/L | BUN ([…], time 7 day): 13.6 mg/dL | CRE ([…], time 7 day): 0.4 mg/dL | Ca ([…], time 7 day): 10.7 mg/dL | Cl ([…], time 7 day): 103.2 meq/L | DBIL ([…], time 7 day): 0.076 mg/dL | GLC ([…], time 7 day): 201.2 mg/dL | IP ([…], time 7 day): 7.5 mg/dL | K ([…], time 7 day): 4.1 meq/L | LDH ([…], time 7 day): 188 IU/L | Na ([…], time 7 day): 140.4 meq/L | PL ([…], time 7 day): 136.4 mg/dL | RALB ([…], time 7 day): 3.4 g/dL | TBIL ([…], time 7 day): 0.1 mg/dL | TC ([…], time 7 day): 64.8 mg/dL | TG ([…], time 7 day): 96.2 mg/dL | TP ([…], time 7 day): 5.7 g/dL | gamma-GTP ([…], time 7 day): 1.4 IU/L | A/G ([…], time 14 day): 1.4 | ALP ([…], time 14 day): 880.2 IU/L | ALT ([…], time 14 day): 35 IU/L | AST ([…], time 14 day): 64.4 IU/L | BUN ([…], time 14 day): 15.4 mg/dL | CRE ([…], time 14 day): 0.5 mg/dL | Ca ([…], time 14 day): 10.7 mg/dL | Cl ([…], time 14 day): 103.4 meq/L | DBIL ([…], time 14 day): 0.1 mg/dL | GLC ([…], time 14 day): 196.2 mg/dL | IP ([…], time 14 day): 7.3 mg/dL | K ([…], time 14 day): 4.1 meq/L | LDH ([…], time 14 day): 169.6 IU/L | Na ([…], time 14 day): 141.6 meq/L | PL ([…], time 14 day): 143.2 mg/dL | RALB ([…], time 14 day): 3.5 g/dL | TBIL ([…], time 14 day): 0.2 mg/dL | TC ([…], time 14 day): 69.6 mg/dL | TG ([…], time 14 day): 138 mg/dL | TP ([…], time 14 day): 5.9 g/dL | gamma-GTP ([…], time 14 day): 1.2 IU/L | A/G ([…], time 28 day): 1.4 | ALP ([…], time 28 day): 611.4 IU/L | ALT ([…], time 28 day): 30.8 IU/L | AST ([…], time 28 day): 61.8 IU/L | BUN ([…], time 28 day): 19 mg/dL | CRE ([…], time 28 day): 0.4 mg/dL | Ca ([…], time 28 day): 10.4 mg/dL | Cl ([…], time 28 day): 102.4 meq/L | DBIL ([…], time 28 day): 0.092 mg/dL | GLC ([…], time 28 day): 265 mg/dL | IP ([…], time 28 day): 7.2 mg/dL | K ([…], time 28 day): 3.8 meq/L | LDH ([…], time 28 day): 194.4 IU/L | Na ([…], time 28 day): 140.4 meq/L | PL ([…], time 28 day): 143.4 mg/dL | RALB ([…], time 28 day): 3.4 g/dL | TBIL ([…], time 28 day): 0.1 mg/dL | TC ([…], time 28 day): 69.8 mg/dL | TG ([…], time 28 day): 107.8 mg/dL | TP ([…], time 28 day): 5.8 g/dL | gamma-GTP ([…], time 28 day): 1 IU/L
